Values joined by “and” are separate entries in the source; they are usually repeats but may differ in a detail not shown here. Identical values can stand only once. Numbers after ± are expanded uncertainties.

Assay in one data set: not given
The settings on record: 323.15 K; 101 kPa; Liquid; Sing-around technique in a fixed-path interferometer.
Regarding `CCC(O)CO` (centres undefined) [1,2-butanediol], the speed of sound was 1380 ± 1.2 m/s and 1379.6 ± 1.2 m/s and 1379.9 ± 1.2 m/s.

Still in this data set, the particulars now being: 323.15 K; 101 kPa; Liquid; Vibrating tube method.
Regarding `OCc1ccccc1` [benzenemethanol], the mass density is listed as 1021.75 ± 0.25 kg/m3.

Consider `CC(O)CCO` (centres undefined) [1,3-butanediol], for which the mass density worked out at 984.506 ± 0.82 kg/m3.

As to `CCC(C)O` (centres undefined) [butan-2-ol], the mass density amounted to 781.09 ± 0.24 kg/m3.

On to `OCCc1ccccc1` [2-phenylethanol], for which the mass density was 997.075 ± 0.23 kg/m3.

Turning to `CCC(O)CO` (centres undefined) [1,2-butanediol], the mass density is 979.394 ± 0.23 kg/m3 and 979.371 ± 0.23 kg/m3 and 979.406 ± 0.23 kg/m3.

A short description of a further data set: xn = mol fraction of the nth substance listed. The following applies: 298.15 K; 101 kPa; Liquid; Sing-around technique in a fixed-path interferometer; x1 = 1.
As for `CCC(O)CO` (centres undefined) [1,2-butanediol] + CC(O)CCO, the speed of sound is given as 1452.6 ± 1.3 m/s.

In the case of `OCc1ccccc1` [benzenemethanol] + CCC(O)CO, the speed of sound is 1525.2 ± 1.3 m/s.

Still in this data set, the particulars now being: 298.15 K; 101 kPa; Liquid; Sing-around technique in a fixed-path interferometer; x2 = 0.
Consider `CCC(O)CO` (centres undefined) [1,2-butanediol] + OCCc1ccccc1, for which the speed of sound is on record as 1452.6 ± 1.3 m/s.

As to `CCC(C)O` (centres undefined) [butan-2-ol] + CCC(O)CO, the speed of sound came out at 1212.7 ± 1.2 m/s.

Still in this data set, the particulars now being: 298.15 K; 101 kPa; Liquid; Vibrating tube method; x1 = 1.
As for `CCC(O)CO` (centres undefined) [1,2-butanediol] + CC(O)CCO, the mass density came to 998.509 ± 0.23 kg/m3.

`OCc1ccccc1` [benzenemethanol] + CCC(O)CO: the mass density stood at 1041.22 ± 0.26 kg/m3.

Still in this data set, the particulars now being: 298.15 K; 101 kPa; Liquid; Vibrating tube method; x2 = 0.
As for `CCC(O)CO` (centres undefined) [1,2-butanediol] + OCCc1ccccc1, the mass density came out at 998.509 ± 0.23 kg/m3.

On to `CCC(C)O` (centres undefined) [butan-2-ol] + CCC(O)CO, for which the mass density is given as 803.103 ± 0.24 kg/m3.

The data set is the same for the next values; noted with them: 303.15 K; 101 kPa; Liquid; Sing-around technique in a fixed-path interferometer; x1 = 1.
Consider `CCC(O)CO` (centres undefined) [1,2-butanediol] + CC(O)CCO, for which the speed of sound was found to be 1438.2 ± 1.3 m/s.

Consider `OCc1ccccc1` [benzenemethanol] + CCC(O)CO, for which the speed of sound is on record as 1509.3 ± 1.3 m/s.

Staying with this data set, now noted: 303.15 K; 101 kPa; Liquid; Sing-around technique in a fixed-path interferometer; x2 = 0.
Consider `CCC(O)CO` (centres undefined) [1,2-butanediol] + OCCc1ccccc1, for which the speed of sound is on record as 1437.7 ± 1.3 m/s.

For `CCC(C)O` (centres undefined) [butan-2-ol] + CCC(O)CO, the speed of sound was 1194.5 ± 1.2 m/s.

The same data set, now with this note: 303.15 K; 101 kPa; Liquid; Vibrating tube method; x1 = 1.
Turning to `CCC(O)CO` (centres undefined) [1,2-butanediol] + CC(O)CCO, the mass density stood at 994.759 ± 0.23 kg/m3.

For the molecule `OCc1ccccc1` [benzenemethanol] + CCC(O)CO, the mass density is 1037.35 ± 0.26 kg/m3.

The same data set, now with this note: 303.15 K; 101 kPa; Liquid; Vibrating tube method; x2 = 0.
As for `CCC(O)CO` (centres undefined) [1,2-butanediol] + OCCc1ccccc1, the mass density is 994.719 ± 0.23 kg/m3.

`CCC(C)O` (centres undefined) [butan-2-ol] + CCC(O)CO: the mass density turned out to be 798.891 ± 0.24 kg/m3.

Still in this data set, the particulars now being: 308.15 K; 101 kPa; Liquid; Sing-around technique in a fixed-path interferometer; x1 = 1.
As to `CCC(O)CO` (centres undefined) [1,2-butanediol] + CC(O)CCO, the speed of sound is recorded as 1423.6 ± 1.3 m/s.

Take `OCc1ccccc1` [benzenemethanol] + CCC(O)CO: the speed of sound amounted to 1493.6 ± 1.3 m/s.

The same data set, now with this note: 308.15 K; 101 kPa; Liquid; Sing-around technique in a fixed-path interferometer; x2 = 0.
In the case of `CCC(O)CO` (centres undefined) [1,2-butanediol] + OCCc1ccccc1, the speed of sound stood at 1423.6 ± 1.3 m/s.

Consider `CCC(C)O` (centres undefined) [butan-2-ol] + CCC(O)CO, for which the speed of sound is listed as 1176.2 ± 1.2 m/s.

Staying with this data set, now noted: 308.15 K; 101 kPa; Liquid; Vibrating tube method; x1 = 1.
For `CCC(O)CO` (centres undefined) [1,2-butanediol] + CC(O)CCO, the mass density came out at 990.971 ± 0.23 kg/m3.

Turning to `OCc1ccccc1` [benzenemethanol] + CCC(O)CO, the mass density was 1033.47 ± 0.26 kg/m3.

The same data set, now with this note: 308.15 K; 101 kPa; Liquid; Vibrating tube method; x2 = 0.
As for `CCC(O)CO` (centres undefined) [1,2-butanediol] + OCCc1ccccc1, the mass density is recorded as 990.971 ± 0.23 kg/m3.

For `CCC(C)O` (centres undefined) [butan-2-ol] + CCC(O)CO, the mass density was found to be 794.588 ± 0.24 kg/m3.

Still in this data set, the particulars now being: 313.15 K; 101 kPa; Liquid; Sing-around technique in a fixed-path interferometer; x1 = 1.
Take `CCC(O)CO` (centres undefined) [1,2-butanediol] + CC(O)CCO: the speed of sound stood at 1409.1 ± 1.3 m/s.

For the molecule `OCc1ccccc1` [benzenemethanol] + CCC(O)CO, the speed of sound came to 1478 ± 1.3 m/s.

Staying with this data set, now noted: 313.15 K; 101 kPa; Liquid; Sing-around technique in a fixed-path interferometer; x2 = 0.
Consider `CCC(O)CO` (centres undefined) [1,2-butanediol] + OCCc1ccccc1, for which the speed of sound amounted to 1408.5 ± 1.3 m/s.

As to `CCC(C)O` (centres undefined) [butan-2-ol] + CCC(O)CO, the speed of sound was found to be 1157.9 ± 1.2 m/s.

The same data set, now with this note: 313.15 K; 101 kPa; Liquid; Vibrating tube method; x1 = 1.
On to `CCC(O)CO` (centres undefined) [1,2-butanediol] + CC(O)CCO, for which the mass density came to 987.152 ± 0.23 kg/m3.

With `OCc1ccccc1` [benzenemethanol] + CCC(O)CO, the mass density is on record as 1029.58 ± 0.26 kg/m3.

The data set is the same for the next values; noted with them: 313.15 K; 101 kPa; Liquid; Vibrating tube method; x2 = 0.
In the case of `CCC(O)CO` (centres undefined) [1,2-butanediol] + OCCc1ccccc1, the mass density was determined as 987.113 ± 0.23 kg/m3.

As for `CCC(C)O` (centres undefined) [butan-2-ol] + CCC(O)CO, the mass density is listed as 790.191 ± 0.24 kg/m3.

Staying with this data set, now noted: 318.15 K; 101 kPa; Liquid; Sing-around technique in a fixed-path interferometer; x1 = 1.
As for `CCC(O)CO` (centres undefined) [1,2-butanediol] + CC(O)CCO, the speed of sound was 1394.5 ± 1.2 m/s.

Turning to `OCc1ccccc1` [benzenemethanol] + CCC(O)CO, the speed of sound is on record as 1462.6 ± 1.3 m/s.

The same data set, now with this note: 318.15 K; 101 kPa; Liquid; Sing-around technique in a fixed-path interferometer; x2 = 0.
Take `CCC(O)CO` (centres undefined) [1,2-butanediol] + OCCc1ccccc1: the speed of sound worked out at 1394 ± 1.2 m/s.

For `CCC(C)O` (centres undefined) [butan-2-ol] + CCC(O)CO, the speed of sound is given as 1139.5 ± 1.2 m/s.

Staying with this data set, now noted: 318.15 K; 101 kPa; Liquid; Vibrating tube method; x1 = 1.
Turning to `CCC(O)CO` (centres undefined) [1,2-butanediol] + CC(O)CCO, the mass density is reported as 983.297 ± 0.23 kg/m3.

For `OCc1ccccc1` [benzenemethanol] + CCC(O)CO, the mass density is reported as 1025.67 ± 0.25 kg/m3.

Staying with this data set, now noted: 318.15 K; 101 kPa; Liquid; Vibrating tube method; x2 = 0.
As to `CCC(O)CO` (centres undefined) [1,2-butanediol] + OCCc1ccccc1, the mass density stood at 983.257 ± 0.23 kg/m3.

Consider `CCC(C)O` (centres undefined) [butan-2-ol] + CCC(O)CO, for which the mass density came out at 785.692 ± 0.24 kg/m3.

The same data set, now with this note: 323.15 K; 101 kPa; Liquid; Sing-around technique in a fixed-path interferometer; x1 = 1.
In the case of `CCC(O)CO` (centres undefined) [1,2-butanediol] + CC(O)CCO, the speed of sound is 1379.9 ± 1.2 m/s.

For `OCc1ccccc1` [benzenemethanol] + CCC(O)CO, the speed of sound stood at 1447.3 ± 1.3 m/s.

Still in this data set, the particulars now being: 323.15 K; 101 kPa; Liquid; Sing-around technique in a fixed-path interferometer; x2 = 0.
Turning to `CCC(O)CO` (centres undefined) [1,2-butanediol] + OCCc1ccccc1, the speed of sound is recorded as 1379.6 ± 1.2 m/s.

As to `CCC(C)O` (centres undefined) [butan-2-ol] + CCC(O)CO, the speed of sound is listed as 1121 ± 1.2 m/s.

The data set is the same for the next values; noted with them: 323.15 K; 101 kPa; Liquid; Vibrating tube method; x1 = 1.
`CCC(O)CO` (centres undefined) [1,2-butanediol] + CC(O)CCO: the mass density was 979.406 ± 0.23 kg/m3.

Turning to `OCc1ccccc1` [benzenemethanol] + CCC(O)CO, the mass density amounted to 1021.75 ± 0.25 kg/m3.

The data set is the same for the next values; noted with them: 323.15 K; 101 kPa; Liquid; Vibrating tube method; x2 = 0.
On to `CCC(O)CO` (centres undefined) [1,2-butanediol] + OCCc1ccccc1, for which the mass density came to 979.371 ± 0.23 kg/m3.

Regarding `CCC(C)O` (centres undefined) [butan-2-ol] + CCC(O)CO, the mass density turned out to be 781.09 ± 0.24 kg/m3.
